Reference: patent publication US20060233893A1, “Aqueous solutions for the reduction of fatty tissue” (priority 2004, published 2006)

Tested on: fatty tissue
Assay: administration of solutions to fatty tissue in aesthetic treatment of cellulite by lipotomy
Assay type: in vivo
Details: added to solution of approximately from 20 to 90 mOsm/l

Row | Compound | efficacy of a highly hypotonic lipotomy solution in the destruction of fatty tissue
1 | phosphatidylcholine | increased the efficacy
2 | O=C(O)Cc1cc(I)c(Oc2ccc(O)c(I)c2)c(I)c1 [tiratricol, triiodothyroacetic acid] | increased the efficacy
